Results on 17 compounds are retold here after US8003660B2, “Modulators of muscarinic receptors” (Vertex Pharmaceuticals Incorporated, priority 2006, dated 2011).

The structures appear in SMILES notation.

For orientation: EC50 means the concentration at which the effect is half-maximal.

What all share (assay type): cell-based
Test [1] concerns the target T1, M3 muscarinic receptor (Homo sapiens, UniProt P20309).
T1 construct: expressed in transfected cells; host or cells: CHO (M3-CHO)
Briefly: Functional mobilization of intracellular calcium (FLIPR) in CHO cells expressing M3. The note with it: for EC50: CHO cells expressing M3, FLIPR calcium; for Emax: CHO, 100% = maximum response obtained with the Carbachol control, read-out: M3 Efficacy. The method, boiled down:
(§1)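 Calcium flux is read on FLIPR over 60 sec at 488/540 nm in muscarinic-receptor CHO lines. Antagonist mode adds carbachol at EC80 after 15 min compound preincubation or with simultaneous co-application. Agonist mode adds compound alone. Cells carry Fluo-3 or Calcium 3 dye in probenecid-containing pH 7.4 buffer, 0.5% DMSO final.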
A general note: Calcium flux is commonly read through the fluorescence of an indicator in the cells.

In test [2] the target is T2, M4 muscarinic receptor (Homo sapiens, UniProt P08173).
T2 construct: expressed in transfected cells; host or cells: CHO (M4-CHO)
T2 sequence (P08173 1-479): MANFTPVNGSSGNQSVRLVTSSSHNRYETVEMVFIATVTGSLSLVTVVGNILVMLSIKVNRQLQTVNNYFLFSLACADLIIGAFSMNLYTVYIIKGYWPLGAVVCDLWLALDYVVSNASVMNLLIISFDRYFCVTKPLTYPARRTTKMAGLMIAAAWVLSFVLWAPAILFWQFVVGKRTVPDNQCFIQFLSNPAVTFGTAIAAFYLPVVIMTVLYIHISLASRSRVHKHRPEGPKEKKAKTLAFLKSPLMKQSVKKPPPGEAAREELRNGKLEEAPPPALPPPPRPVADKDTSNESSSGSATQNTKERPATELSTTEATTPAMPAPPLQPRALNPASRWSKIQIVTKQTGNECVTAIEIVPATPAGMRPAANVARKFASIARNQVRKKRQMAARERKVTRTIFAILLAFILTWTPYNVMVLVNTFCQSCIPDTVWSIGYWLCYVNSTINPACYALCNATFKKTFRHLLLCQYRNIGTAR
Briefly: Functional mobilization of intracellular calcium (FLIPR) in CHO cells expressing M4. The note with it: for EC50: CHO cells expressing M4, FLIPR calcium; for Emax: CHO, 100% = maximum response obtained with the Carbachol control, read-out: M4 Efficacy. The method, boiled down: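 Recombinant CHO cells loaded with Fluo-3 AM or Calcium 3 dye in pH 7.4 buffer containing 1 mM probenecid, with 0.5% final DMSO. For agonism, compound is added directly. For inhibition, it is preincubated 15 min, or co-applied, before carbachol at EC80. FLIPR fluorescence (ex 488, em 540 nm) is recorded for 60 s.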

The target of test [3] is T3, M1 muscarinic receptor (Homo sapiens, UniProt P11229).
T3 construct: expressed in transfected cells; host or cells: CHO (M1-CHO)
T3 sequence (P11229 1-460): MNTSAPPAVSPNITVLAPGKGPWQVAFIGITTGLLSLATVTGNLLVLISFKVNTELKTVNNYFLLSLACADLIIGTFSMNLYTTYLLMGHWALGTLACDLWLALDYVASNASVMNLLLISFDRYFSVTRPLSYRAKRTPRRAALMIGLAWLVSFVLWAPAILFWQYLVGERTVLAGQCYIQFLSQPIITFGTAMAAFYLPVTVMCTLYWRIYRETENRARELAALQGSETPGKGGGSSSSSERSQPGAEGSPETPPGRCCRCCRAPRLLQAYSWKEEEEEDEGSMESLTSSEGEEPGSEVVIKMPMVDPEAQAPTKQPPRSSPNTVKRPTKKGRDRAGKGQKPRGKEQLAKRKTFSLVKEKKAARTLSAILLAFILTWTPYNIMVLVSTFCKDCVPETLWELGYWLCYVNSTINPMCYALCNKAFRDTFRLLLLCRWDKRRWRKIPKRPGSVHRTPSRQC
Briefly: Functional mobilization of intracellular calcium (FLIPR) in CHO cells expressing M1. The settings on record: for EC50: CHO cells expressing M1, FLIPR calcium; for Emax: CHO, 100% = maximum response obtained with the Carbachol control, read-out: M1 Efficacy. The method, boiled down:
as §1

The target of test [4] is T4, M2 muscarinic receptor (Homo sapiens, UniProt P08172).
T4 construct: expressed in transfected cells; host or cells: CHO (M2-CHO)
T4 sequence (P08172 1-466): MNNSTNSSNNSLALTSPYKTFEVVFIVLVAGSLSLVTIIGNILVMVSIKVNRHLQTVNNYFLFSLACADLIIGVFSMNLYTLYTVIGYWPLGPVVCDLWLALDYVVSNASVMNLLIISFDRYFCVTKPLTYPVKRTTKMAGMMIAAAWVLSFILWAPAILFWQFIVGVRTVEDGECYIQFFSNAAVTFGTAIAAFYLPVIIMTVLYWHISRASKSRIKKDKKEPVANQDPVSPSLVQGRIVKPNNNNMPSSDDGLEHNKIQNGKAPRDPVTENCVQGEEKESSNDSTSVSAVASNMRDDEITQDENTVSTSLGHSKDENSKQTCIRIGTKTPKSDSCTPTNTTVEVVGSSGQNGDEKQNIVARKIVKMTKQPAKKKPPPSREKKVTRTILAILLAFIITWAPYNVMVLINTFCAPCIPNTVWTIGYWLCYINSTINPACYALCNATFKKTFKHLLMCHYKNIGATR
Briefly: Functional mobilization of intracellular calcium (FLIPR) in CHO cells expressing M2. The note with it: for EC50: CHO cells expressing M2, FLIPR calcium; for Emax: CHO, 100% = maximum response obtained with the Carbachol control, read-out: M2 Efficacy. In a few lines:
as §1

T1 sequence (P20309 whole entry): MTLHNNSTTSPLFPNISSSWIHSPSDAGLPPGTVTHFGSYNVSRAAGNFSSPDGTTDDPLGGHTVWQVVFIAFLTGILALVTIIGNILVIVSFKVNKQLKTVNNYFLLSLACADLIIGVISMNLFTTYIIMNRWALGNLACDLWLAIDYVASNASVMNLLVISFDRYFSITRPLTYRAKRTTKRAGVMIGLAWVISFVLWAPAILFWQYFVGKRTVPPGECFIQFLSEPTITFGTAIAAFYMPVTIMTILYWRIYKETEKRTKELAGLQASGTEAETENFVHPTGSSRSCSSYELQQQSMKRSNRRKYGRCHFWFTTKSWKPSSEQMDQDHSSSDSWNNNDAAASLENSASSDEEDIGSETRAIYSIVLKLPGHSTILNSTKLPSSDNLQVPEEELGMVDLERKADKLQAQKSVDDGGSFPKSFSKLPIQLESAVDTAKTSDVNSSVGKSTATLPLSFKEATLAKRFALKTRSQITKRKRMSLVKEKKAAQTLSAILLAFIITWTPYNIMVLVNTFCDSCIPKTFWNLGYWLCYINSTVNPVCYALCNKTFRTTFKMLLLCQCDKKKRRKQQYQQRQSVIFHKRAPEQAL

As to `CC(C)(C)CCN1CCC2(CC[C@H](NC(=O)Cc3cccnc3)c3ccc(F)cc32)CC1` [compound 79], the EC50 was above 5000 nM in test [1], below 2000 nM in test [2], below 2000 nM in test [3] and below 2000 nM in test [4]. Further, the Emax in test [1] is below 25%; in test [2], 25 to 100%; in test [3], 25 to 100%; in test [4], 25 to 100%.

As to `CC(C)CCN1CCC2(CC[C@H](NS(C)(=O)=O)c3ccccc32)CC1` [compound 80], the EC50 in test [1] is above 5000 nM; in test [2] it was below 2000 nM; in test [3], below 2000 nM; in test [4], above 5000 nM. Further, the Emax in test [1] is below 25%; in test [2] it was 25 to 100%; in test [3], 25 to 100%; in test [4], below 25%.

On to `CC(=O)N1CCC(C(=O)N[C@H]2CCC3(CCN(CCC(C)(C)C)CC3)c3cc(F)ccc32)CC1` [compound 81], for which the EC50 in test [1] was above 5000 nM; in test [2] it was below 2000 nM; in test [3], 2000 to 5000 nM; in test [4], above 5000 nM. Moreover, the Emax was below 25% in test [1], 25 to 100% in test [2], 25 to 100% in test [3] and below 25% in test [4].

`CC(=O)N1CCCC[C@@H]1C(=O)N[C@H]1CCC2(CCN(CCC(C)(C)C)CC2)c2cc(F)ccc21` [compound 82]: the 50% effective concentration (EC50) was above 5000 nM in test [1], below 2000 nM in test [2], below 2000 nM in test [3] and 2000 to 5000 nM in test [4]. The Emax was below 25% in test [1], 25 to 100% in test [2], 25 to 100% in test [3] and below 25% in test [4].

Consider `CC(=O)N1CCCC[C@H]1C(=O)N[C@H]1CCC2(CCN(CCC(C)(C)C)CC2)c2cc(F)ccc21` [compound 83], for which the EC50 was above 5000 nM in test [1], below 2000 nM in test [2], below 2000 nM in test [3] and above 5000 nM in test [4]. The Emax was below 25% in test [1], 25 to 100% in test [2], 25 to 100% in test [3] and below 25% in test [4].

As to `CC(=O)N1CCC[C@H]1C(=O)N[C@@H]1CCC2(CCN(CCC(C)(C)C)CC2)c2ccccc21` [compound 84], the EC50 in test [1] was above 5000 nM; in test [2], below 2000 nM; in test [3], 2000 to 5000 nM; in test [4] it was below 2000 nM. Also, the Emax in test [1] is below 25%; in test [2], 25 to 100%; in test [3] it was 25 to 100%; in test [4] it was 25 to 100%.

With `C[C@@H](O)CC(=O)N[C@H]1CCC2(CCN(CCC(C)(C)C)CC2)c2ccccc21` [compound 85], the EC50 was above 5000 nM in test [1], below 2000 nM in test [2], below 2000 nM in test [3] and below 2000 nM in test [4]. Moreover, the Emax in test [1] was below 25%; in test [2] it was 25 to 100%; in test [3], 25 to 100%; in test [4], 25 to 100%.

Regarding `CC(=O)N(C(C)C)[C@H]1CCC2(CCN(CCC(C)(C)C)CC2)c2cc(F)ccc21` [compound 86], the concentration for a half-maximal effect (EC50) is above 5000 nM in test [1], below 2000 nM in test [2], below 2000 nM in test [3] and above 5000 nM in test [4]. The Emax was below 25% in test [1], 25 to 100% in test [2], 25 to 100% in test [3] and below 25% in test [4].

In the case of `CC(=O)NC(C(=O)N[C@@H]1CCC2(CCN(CCC(C)(C)C)CC2)c2ccccc21)C(C)C` (stereo partly shown) [compound 87], the concentration giving a half-maximal response (EC50) in test [1] was above 5000 nM; in test [2], below 2000 nM; in test [3] it was above 5000 nM; in test [4] it was above 5000 nM. Moreover, the Emax is below 25% in test [1], 25 to 100% in test [2], below 25% in test [3] and below 25% in test [4].

With `CC(C)(C)CCN1CCC2(CC[C@H](NC(=O)CCOC(C)(C)C)c3ccccc32)CC1` [compound 88], the EC50 in test [1] was above 5000 nM; in test [2], below 2000 nM; in test [3], below 2000 nM; in test [4], below 2000 nM. In addition, the Emax was below 25% in test [1], 25 to 100% in test [2], 25 to 100% in test [3] and 25 to 100% in test [4].

`CC(C)CCN1CCC2(CCCc3ccccc32)CC1` [compound 89]: the EC50 was above 5000 nM in test [1], below 2000 nM in test [2], above 5000 nM in test [3] and above 5000 nM in test [4]. The Emax is below 25% in test [1], 25 to 100% in test [2], 25 to 100% in test [3] and below 25% in test [4].

`CC(C)CCN1CCC2(CC[C@H](N3CCCC3=O)c3ccccc32)CC1` [compound 90]: the EC50 is above 5000 nM in test [1], 2000 to 5000 nM in test [2], 2000 to 5000 nM in test [3] and above 5000 nM in test [4]. For the same compound, the Emax in test [1] is below 25%; in test [2] it was 25 to 100%; in test [3] it was 25 to 100%; in test [4], below 25%.

For the compound `CC(C)(C)CCN1CCC2(CC[C@H](N3CCCC3=O)c3ccc(F)cc32)CC1` [compound 91], the half-maximal effective concentration (EC50) was above 5000 nM in test [1], below 2000 nM in test [2], below 2000 nM in test [3] and below 2000 nM in test [4]. Moreover, the Emax in test [1] is below 25%; in test [2], 25 to 100%; in test [3], 25 to 100%; in test [4], below 25%.

Turning to `CC(=O)CCC(=O)N[C@H]1CCC2(CCN(CCC(C)(C)C)CC2)c2cc(F)ccc21` [compound 92], the EC50 in test [1] is above 5000 nM; in test [2] it was below 2000 nM; in test [3] it was below 2000 nM; in test [4], below 2000 nM. For the same compound, the Emax is below 25% in test [1], 25 to 100% in test [2], 25 to 100% in test [3] and 25 to 100% in test [4].

For the compound `CC(C)(C)CCN1CCC2(CC[C@@H](NC(=O)CC3CCOCC3)c3ccc(F)cc32)CC1` [compound 93], the EC50 in test [1] was above 5000 nM; in test [2], below 2000 nM; in test [3] it was 2000 to 5000 nM; in test [4], above 5000 nM. Besides, the Emax in test [1] was below 25%; in test [2], 25 to 100%; in test [3], 25 to 100%; in test [4] it was below 25%.

For `CCCN1CCC2(CC[C@H](NC(C)=O)c3ccccc32)CC1` [compound 95], the EC50 in test [1], in test [2], in test [3] and in test [4] was above 5000 nM in each case. Also, the Emax in test [1] was below 25%; in test [2], 25 to 100%; in test [3], 25 to 100%; in test [4], below 25%.

On to `CC(=O)NCCC(=O)N[C@H]1CCC2(CCN(CCC(C)(C)C)CC2)c2cc(F)ccc21` [compound 96], for which the 50% effective concentration (EC50) in test [1] was above 5000 nM; in test [2], below 2000 nM; in test [3] it was below 2000 nM; in test [4] it was below 2000 nM. The Emax in test [1] is below 25%; in test [2], 25 to 100%; in test [3], 25 to 100%; in test [4], 25 to 100%.
